Measurements from patent US20260258369A1, “GENERATION OF BRANCHING URETERIC BUD AND COLLECTING DUCT ORGANOIDS FROM HUMAN PLURIPOTENT STEM CELLS” (The Brigham and Women's Hospital, Inc., priority 2023, published 2026).
“Also recorded” adds a separate entry of the source.

Key:
[1] = system: CD organoid-derived cells; test: Aldosterone response of transepithelial current in CD organoid-derived cells; assay type: cell-based, human; conditions: 24 hours; for increase in amiloride-sensitive current: aldosterone 10-100 nM, no dexamethasone
ENaC [2] = biological target: T1, ENaC (Homo sapiens, UniProt P37088+P51168+P51170); conditions: amiloride 10 μM, open circuit
T1 sequence (P37088 1-669): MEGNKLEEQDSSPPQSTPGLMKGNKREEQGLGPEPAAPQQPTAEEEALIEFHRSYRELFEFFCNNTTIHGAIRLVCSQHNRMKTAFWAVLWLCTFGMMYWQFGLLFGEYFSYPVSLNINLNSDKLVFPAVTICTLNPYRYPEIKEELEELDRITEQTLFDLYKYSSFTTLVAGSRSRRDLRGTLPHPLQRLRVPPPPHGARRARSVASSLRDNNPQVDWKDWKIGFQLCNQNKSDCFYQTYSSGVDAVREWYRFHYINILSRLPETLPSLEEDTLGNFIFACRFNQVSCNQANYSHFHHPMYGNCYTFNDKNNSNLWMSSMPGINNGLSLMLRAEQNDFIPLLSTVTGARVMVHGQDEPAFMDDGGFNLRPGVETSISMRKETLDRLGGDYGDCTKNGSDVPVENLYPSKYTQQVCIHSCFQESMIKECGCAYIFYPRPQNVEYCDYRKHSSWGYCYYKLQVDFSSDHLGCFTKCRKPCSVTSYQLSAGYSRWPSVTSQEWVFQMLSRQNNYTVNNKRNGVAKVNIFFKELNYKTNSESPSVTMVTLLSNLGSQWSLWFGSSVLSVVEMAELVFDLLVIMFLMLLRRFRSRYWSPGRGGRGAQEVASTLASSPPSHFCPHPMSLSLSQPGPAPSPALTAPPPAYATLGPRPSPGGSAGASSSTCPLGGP
T1 sequence (P51168 1-640): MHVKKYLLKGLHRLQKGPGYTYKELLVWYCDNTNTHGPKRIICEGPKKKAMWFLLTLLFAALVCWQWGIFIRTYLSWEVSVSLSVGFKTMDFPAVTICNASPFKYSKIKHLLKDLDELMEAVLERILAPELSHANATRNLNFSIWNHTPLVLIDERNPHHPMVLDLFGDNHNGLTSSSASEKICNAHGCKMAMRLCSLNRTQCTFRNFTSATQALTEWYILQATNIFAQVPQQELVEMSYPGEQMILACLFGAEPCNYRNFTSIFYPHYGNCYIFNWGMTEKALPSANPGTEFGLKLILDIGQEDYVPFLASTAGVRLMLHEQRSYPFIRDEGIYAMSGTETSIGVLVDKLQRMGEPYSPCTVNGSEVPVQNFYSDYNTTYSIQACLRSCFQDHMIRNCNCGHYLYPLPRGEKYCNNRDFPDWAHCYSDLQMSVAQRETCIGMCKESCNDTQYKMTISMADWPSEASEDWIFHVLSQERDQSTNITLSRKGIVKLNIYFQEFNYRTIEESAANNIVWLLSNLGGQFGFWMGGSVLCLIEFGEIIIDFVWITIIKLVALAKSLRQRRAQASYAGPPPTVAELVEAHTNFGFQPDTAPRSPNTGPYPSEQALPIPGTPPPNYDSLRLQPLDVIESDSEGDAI
T1 sequence (P51170 1-649): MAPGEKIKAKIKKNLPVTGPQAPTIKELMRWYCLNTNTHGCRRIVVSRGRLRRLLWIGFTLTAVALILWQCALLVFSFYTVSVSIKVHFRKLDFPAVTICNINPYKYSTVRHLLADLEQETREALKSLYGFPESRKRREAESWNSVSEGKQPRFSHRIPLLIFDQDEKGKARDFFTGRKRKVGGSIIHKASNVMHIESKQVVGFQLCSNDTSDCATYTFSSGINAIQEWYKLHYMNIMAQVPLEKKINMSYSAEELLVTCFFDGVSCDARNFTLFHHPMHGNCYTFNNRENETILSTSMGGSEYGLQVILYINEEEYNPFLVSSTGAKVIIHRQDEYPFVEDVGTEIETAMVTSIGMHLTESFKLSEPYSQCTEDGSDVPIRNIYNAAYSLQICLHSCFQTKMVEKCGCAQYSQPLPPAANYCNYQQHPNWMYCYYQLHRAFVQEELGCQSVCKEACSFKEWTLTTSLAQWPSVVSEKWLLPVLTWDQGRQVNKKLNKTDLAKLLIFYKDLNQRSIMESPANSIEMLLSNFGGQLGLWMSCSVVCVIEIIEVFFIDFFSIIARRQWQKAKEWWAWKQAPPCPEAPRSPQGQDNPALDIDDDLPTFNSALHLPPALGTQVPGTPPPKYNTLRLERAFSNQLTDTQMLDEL

V-type ATPase [3] = biological target: T2, V-type ATPase (Homo sapiens, UniProt P27449); test: Ussing chamber short-circuit current in FOXI1-induced CD cells; conditions: closed circuit
ENaC [4] = biological target: T1, ENaC; test: Ussing chamber short-circuit current (Isc) recordings in CD organoid-derived cells; assay type: cell-based; set-up: while the alpha subunit (SCNN1A) was expressed at lower levels; we confirmed expression at the protein level using an antibody specific to SCNN1B; the beta and gamma subunits were most abundant transcriptionally; endogenous in cells; host or cells: 2D cell line derived from hPSC-derived collecting duct organoids (principal cells), grown on transwell / Snapwell inserts
V-type ATPase [5] = test: Transwell open-circuit voltage and calculated current in FOXI1-induced (doxycycline-treated) CD cells; assay type: cell-based, human; conditions: open circuit transwell, amiloride 10 μM
V-type ATPase [6] = biological target: T2, V-type ATPase; test: as above; assay type: cell-based; conditions: bafilomycin 10 nM, added after amiloride, open circuit

C[C@]12CCC(=O)C=C1CC[C@@H]1[C@@H]2[C@@H](O)C[C@]2(C=O)[C@@H](C(=O)CO)CC[C@@H]12 [Aldosterone, aldosterone]
increase in amiloride-sensitive current [1]: ~ 2.5 fold
increase in amiloride-sensitive current ([1]; listed as aldosterone): approximately 2.5 fold
transepithelial voltage and current ([1]; varying concentrations of aldosterone): dose-dependent increase

N=C(N)NC(=O)c1nc(Cl)c(N)nc1N [amiloride]
transepithelial resistance (ENaC [2]): raising the transepithelial resistance
transepithelial voltage and current (ENaC [2]; within several minutes): completely abolished
short-circuit current in FOXI1-induced cells, amiloride (V-type ATPase [3]): small increase in current
residual short-circuit current after raising the concentration (ENaC [4]; amiloride 100 μM, Ussing chamber): eliminated the small amount of residual current; also recorded: completely abolished
inhibition at 10 µM (ENaC [4]; read-out: inhibition of short-circuit current): > 95%
amiloride sensitivity of FOXI1-induced cells (V-type ATPase [5]): largely lost sensitivity

CO/C1=C\C(C)=C\[C@@H](C)[C@@H](O)[C@@H](C)C/C(C)=C/C=C/[C@H](OC)[C@@H]([C@@H](C)[C@@H](O)[C@H](C)[C@@]2(O)C[C@@H](O)[C@H](C)[C@@H](C(C)C)O2)OC1=O [bafilomycin, bafilomycin-A1]
short-circuit current in FOXI1-induced cells, bafilomycin (V-type ATPase [3]): near complete inhibition of the current
voltage and calculated current in FOXI1-induced cells (V-type ATPase [6]): completely suppressed
